Results published in publication PMC12348107, “Saponins from Oxybasis rubra (L.) S.Fuentes, Uotila & Borsh: Comparative Assessment of Cytotoxic Potential Against a Wide Panel of Cancer Cell Lines” (Molecules, 2025).
Where “and” joins values, the source holds several entries; their conditions need not be identical. Equal entries are not always repeated. Where two headings read alike, the source gives them in different places. Marks after values point to notes of the source that are not given here.

Columns and labels:
[1] = tested on: DU-145 metastatic prostate carcinoma cells; test: LDH cytotoxicity assay, DU-145; format: cell-based, human; details: for IC50: Homo sapiens, LDH test, read-out: Cytotoxic activity expressed as IC50
Protocol: (§1) The cytotoxic activity was tested on human cancer and normal cell lines, grouped in several panels: skin (malignant melanoma HTB-140, malignant melanoma A375, melanoma WM793, and normal keratinocytes HaCaT), prostate (prostate carcinoma DU-145, prostate carcinoma PC3, and prostate epithelial cells PNT2), thyroid (thyroid carcinoma FTC133, thyroid carcinoma, undifferentiated 8505C), gastrointestinal panel (hepatocellular carcinoma HepG2, colon adenocarcinoma Caco-2, and colon adenocarcinoma HT29), and single line of lung carcinoma A549. Cells were grown at standard conditions (37 °C, 5% CO2, relative humidity) and culture media (DMEM/F12 for PNT2, WM793, HT29, A549; DMEM Low Glucose for DU-145; DMEM High Glucose for A375, HaCaT, A549; MEM with NEAA for Caco-2), supplemented with 10% fetal bovine serum (FBS) and 1% antibiotic solution (10,000 U penicillin and 10 mg streptomycin/mL). All cell lines, cell culture media, and supplements were from Merck (Seelze, Germany).
(§2) Before the experiment, cells were seeded onto 96-well plates for 24 h, at a density of 1.5 × 10^4 cells/ well. Then the tested compounds (5–100 μg/mL) were added and incubated for 24 and 48 h. Cell viability was measured with the lactate dehydrogenase (LDH) assay by Clontech (Clontech, Mountain View, CA, USA), as described previously. The absorbance was measured at 490 nm using a Biotek Synergy microplate reader (BioTek Instruments Inc., Winooski, VT, USA). Cell viability was expressed as a percentage of dead cells. Each experiment was conducted in triplicate. Doxorubicin was used as a reference cytostatic.
(§3) The results were expressed as mean (±SD). Data were analyzed using Statistica v.13.3 (StatSoft, Tulsa, OK, USA). The IC50 values were calculated using OriginPro 2020b (64-bit) 9.7.5.184 (Academic) (OriginLab Corporation, Northampton, MA, USA). One-way analysis of variance (ANOVA) and the post-hoc Tukey multiple comparison test were used. The statistical significance was defined at the probability level of p < 0.05. Principal component analysis (PCA) and hierarchical cluster analysis (HCA) were performed using Statistica v.13.3 (StatSoft, Tulsa, OK, USA). Prior to PCA, the Bartlett’s sphericity test was conducted, and the Kaiser-Meyer-Olkin Measure of Sampling Adequacy index (KMO) was examined. In the simple model, for each compound tested (1–4), the cell lines were the cases, and the different concentrations of the compound were the parameters. This was followed by a PCA model in which the cell lines were the parameters, and the compounds (at different concentrations) were the cases. All PCA models were based on a correlation matrix. Hierarchical cluster analysis (CA) based on standardized data was performed using Ward’s method and Euclidean distance. The results were grouped based on Mojena’s rule.

[2] = LDH cytotoxicity assay, PNT2; format: cell-based, human; details: human, PNT2 prostate epithelial cells (normal), PNT2 normal cells, LDH test, read-out: Cytotoxic activity expressed as IC50
Protocol: as §1, §2, §3

[3] = tested on: PNT2 prostate epithelial cells; test: LDH cytotoxicity assay, PNT2; format: cell-based, human; details: normal prostate epithelial cells
Protocol: as §1, §2, §3

[4] = tested on: PC3 metastatic prostate carcinoma cells; test: LDH cytotoxicity assay, PC3; format: cell-based; details: Homo sapiens, LDH test, read-out: Cytotoxic activity expressed as IC50
Protocol: as §1, §2, §3

[5] = tested on: WM793 primary melanoma cells; test: LDH cytotoxicity assay, WM793; format: cell-based; details: Homo sapiens, LDH test, read-out: Cytotoxic activity expressed as IC50
Protocol: as §1, §2, §3

[6] = tested on: HepG2 hepatocellular carcinoma cells; test: LDH cytotoxicity assay, HepG2; format: cell-based; details: Homo sapiens, LDH test, read-out: Cytotoxic activity expressed as IC50
Protocol: as §1, §2, §3

[7] = tested on: HaCaT normal keratinocytes; test: LDH cytotoxicity assay, HaCaT; format: cell-based, human; details: HaCaT normal cells, 48 h incubation, LDH test
Protocol: as §1, §2, §3

[8] = LDH cytotoxicity assay, HaCaT; format: cell-based, human; details: human, HaCaT normal keratinocytes, HaCaT normal cells, LDH test, read-out: Cytotoxic activity expressed as IC50
Protocol: as §1, §2, §3

[9] = tested on: FTC133 follicular thyroid carcinoma cells; test: LDH cytotoxicity assay, FTC133; format: cell-based; details: Homo sapiens, FTC-133, LDH test, read-out: Cytotoxic activity expressed as IC50
Protocol: as §1, §2, §3

[10] = tested on: Caco-2 colon adenocarcinoma cells; test: LDH cytotoxicity assay, Caco-2; format: cell-based; details: Homo sapiens, LDH test, read-out: Cytotoxic activity expressed as IC50
Protocol: as §1, §2, §3

[11] = tested on: HTB-140 malignant melanoma cells; test: LDH cytotoxicity assay, HTB-140; format: cell-based; details: Homo sapiens, LDH test, read-out: Cytotoxic activity expressed as IC50
Protocol: as §1, §2, §3

[12] = tested on: A549 lung carcinoma cells; test: LDH cytotoxicity assay, A549; format: cell-based, human; details: LDH test; for IC50: Homo sapiens, read-out: Cytotoxic activity expressed as IC50
Protocol: as §1, §2, §3

[13] = tested on: HT29 colon adenocarcinoma cells; test: LDH cytotoxicity assay, HT29; format: cell-based; details: Homo sapiens, HT-29, LDH test, read-out: Cytotoxic activity expressed as IC50
Protocol: as §1, §2, §3

[14] = tested on: A375 malignant melanoma cells; test: LDH cytotoxicity assay, A375; format: cell-based; details: Homo sapiens, A-375, LDH test, read-out: Cytotoxic activity expressed as IC50
Protocol: as §1, §2, §3

[15] = tested on: 8505C undifferentiated thyroid carcinoma cells; test: LDH cytotoxicity assay, 8505C; format: cell-based; details: Homo sapiens, LDH test, read-out: Cytotoxic activity expressed as IC50
Protocol: as §1, §2, §3

**Q.** Which results are given for CC1(C)CC[C@]2(C(=O)O[C@@H]3O[C@H](CO)[C@@H](O)[C@H](O)[C@H]3O)CC[C@]3(C)C(=CC[C@@H]4[C@@]5(C)CC[C@H](O[C@@H]6O[C@H](CO)[C@@H](O)[C@H](O[C@@H]7O[C@H](CO)[C@@H](O)[C@H](O)[C@H]7O)[C@H]6O)[C@@](C)(CO)[C@@H]5CC[C@]43C)[C@@H]2C1 [Compound 2]?
**A.** Toxicity against DU-145, in words ([1]; DU-145): moderate toxicity; IC50 ([1]; DU-145, 24 h incubation): 33.3 µM and 32 µg/mL; IC50 ([1]; DU-145, 48 h incubation): 22 µM and 21.1 µg/mL; IC50 at 24 h ([2]; 24 h incubation): > 100 µg/mL; IC50 at 48 h ([2]; 48 h incubation): > 100 µg/mL; IC50 ([3]; Homo sapiens, PNT2, incubation time not given, read-out: IC50 against normal prostate epithelial cells): > 100 µg/mL; Toxicity to normal prostate epithelial cells, in words [3]: non-toxic; IC50 ([4]; PC3, 24 h incubation): > 100 µg/mL; IC50 ([4]; PC3, 48 h incubation): 69.8 µM and 67 µg/mL; IC50 ([5]; WM793, 24 h incubation): 14.4 µM and 13.8 µg/mL; IC50 ([5]; WM793, 48 h incubation): 6.79 µM and 6.52 µg/mL; IC50 ([6]; HepG2, 24 h incubation): 98 µM and 94 µg/mL; IC50 ([6]; HepG2, 48 h incubation): 63 µM and 60.5 µg/mL; Cytotoxic activity expressed as IC50 [7]: 39.93 ± 0.52 ^b µg/mL; IC50 at 24 h ([8]; 24 h incubation): 46.8 µM and 44.9 µg/mL; IC50 at 48 h ([8]; 48 h incubation): 41.6 µM and 39.9 µg/mL; IC50 ([9]; FTC133, 24 h incubation): 42.9 µM and 41.1 µg/mL; IC50 ([9]; FTC133, 48 h incubation): 23.5 µM and 22.5 µg/mL; IC50 ([10]; Caco-2, 24 h incubation): > 100 µg/mL; IC50 ([10]; Caco-2, 48 h incubation): 38.4 µM and 36.8 µg/mL; IC50 ([11]; HTB-140, 24 h incubation): > 100 µg/mL; IC50 ([11]; HTB-140, 48 h incubation): > 100 µg/mL; Cytotoxic activity expressed as IC50 ([12]; A549, 48 h incubation): 8.23 ± 0.29 ^a µg/mL; IC50 ([12]; A549, 24 h, A549, 24 h incubation): 13.8 µM and 13.2 µg/mL; IC50 ([12]; A549, 48 h, A549, 48 h incubation): 8.58 µM and 8.24 µg/mL; IC50 ([13]; HT29, 24 h incubation): > 100 µg/mL; IC50 ([13]; HT29, 48 h incubation): 66.5 µM and 63.8 µg/mL; IC50 ([14]; A375, 24 h incubation): 33.9 µM and 32.5 µg/mL; IC50 ([14]; A375, 48 h incubation): 31.4 µM and 30.1 µg/mL; IC50 ([15]; 24 h incubation): > 100 µg/mL; IC50 ([15]; 48 h incubation): > 100 µg/mL
